We go through 2 molecules from patent US20230118142A1, “AGENTS FOR USE IN THE TREATMENT OF TISSUE DAMAGE” (UCL BUSINESS LTD, priority 2020, published 2023).

The term IC50 denotes the midpoint of a concentration-inhibition curve.

A short description of data set [1]: In vivo clearance of ligand. The conditions noted are these: male, C57BL/6, mouse, serum, 0.5 mg; mice, intravenous; read-out: half-life (t1/2) of ligand in mouse circulation. As to the method:
(i) Ligand (0.5 mg/animal) dissolved in PBS or saline (200 μl) was injected intravenously into the tail vein of six male; 23-27 week old wild-type C57BL/6 mice. Up to two blood samples plus a terminal sample per mouse were collected at each time point up to 180 minutes.
(ii) Serum was prepared and ˜200 ng of internal standard (either ^2H4-BPC6 or BPC9) added. Serum proteins were precipitated with 4 volumes of either ice cold methanol or acetonitrile. The supernatant was dried under vacuum and re-dissolved in 0.1% v/v aqueous formic acid. (iii) Samples were chromatographed on a Phenomenex Aqua column using a gradient of 0.1% v/v formic acid-60% v/v acetonitrile in formic acid, and the eluate passed into the positive ion source of a Quattro II triple quadrupole mass spectrometer. The MRM transitions used were m/z 449.3→390.2 and 453.→394.2 (BPC6) and m/z 477.3→418.3, […] (BPC8).
(iv) Ligand concentrations were measured against an extracted standard curve and were plotted using Sigmaplot (v14) and fitted to a 2-parameter exponential decay.

Data set [2] has as its target T1, CRP (Homo sapiens, UniProt P02741).
T1 sequence (P02741 19-224): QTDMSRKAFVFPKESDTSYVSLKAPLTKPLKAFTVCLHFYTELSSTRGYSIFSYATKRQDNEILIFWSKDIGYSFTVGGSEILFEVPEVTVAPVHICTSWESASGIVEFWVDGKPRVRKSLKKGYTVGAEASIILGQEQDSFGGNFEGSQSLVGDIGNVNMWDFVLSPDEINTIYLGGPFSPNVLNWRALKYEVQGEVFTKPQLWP
Nature of the data set: Immobilised phosphocholine plate assay (125I-CRP binding). The note with it: read-out: IC50 for inhibition of 125I-CRP binding to immobilised phosphocholine. More on the design: The final concentrations were 0.73 μM native pentameric CRP; from tissue. On the procedure:
(i) Phosphocholine was immobilised on Greiner NHS-activated microtitre plates by incubation with 4-aminophenyl-1-phosphocholine. Remaining active sites were blocked by incubation with 4% w/v BSA in TC buffer (TCB).
(ii) Human CRP at 1 μg/ml in TC buffer was spiked with ^125I-labelled CRP to provide 10^6 cpm/ml.
(iii) Compounds were prepared from up to 10 mM stock solutions by dilution in TC buffer to 0.5 mM (labelled S1). Serial dilutions were prepared by diluting 100 μl ligand solution with 200 μl TC buffer (S2-S10). A ligand-free control was also used (SO, TC only).
(iv) A 100 μl volume of CRP solution was incubated with 10 μl of each compound (S1-S10, SO) for 1 h at room temperature without stirring, to provide final ligand concentrations across the range 45.5 μM-6.9 nM with a ligand:CRP monomer molar ratio of 1151-0.06. In some cases, single fixed ligand concentrations were also assayed in comparison with PC.
(v) A 100 μl volume of each CRP-ligand mixture was added to the plate wells and incubated for 2 h at room temperature. Solutions were then discarded and the plates washed with TCB buffer. Bound radioactivity was measured (1 min counts) using a gamma counter (Perkin Elmer Wizard 2470).
(vi) Data were plotted with Sigmaplot v14 software using the 4-parameter logistic curve y=min+(max−min)/(1+(x/EC50)^−Hill slope) to calculate IC50.

The target in data set [3] is T1, CRP. Nature of the data set: Roche immunoturbidimetric assay: pure CRP. Type of data set: binding. More on the design: The final concentrations were 0.73 μM native pentameric CRP; from tissue. On the procedure:
(i) Human CRP at ˜90 μg/ml (3.9 μM monomer or 0.78 μM pentamer) in TC buffer was prepared from a stock solution; a 75 μl aliquot was used in the assay.
(ii) Compounds were prepared from stock solutions at up to 10 mM in TC (labelled S1). They were serially diluted with TC buffer (100 μl ligand+200 μl TC) to provide up to 9 dilutions, S2-S10. A TC buffer control (S0) was included in each assay.
(iii) A 15 μl volume of each ligand solution was incubated with 75 μl of CRP for 1 h at 37° C. The final concentrations were CRP pentamer=0.73 μM, ligands S1-S10=625-0.03 μM, corresponding to ligand:CRP pentamer ratios of 853-0.04.
(iv) CRP concentrations were measured by the Roche microparticle-enhanced immunoturbidimetric assay (10) on the COBAS MIRA autoanalyser, and results expressed as a percentage of the CRP control.
(v) Data were plotted using Sigmaplot (V14) using the 4 parameter logistic curve y=min+(max−min)/(1+(x/EC50)^−Hill slope) to calculate EC50.
(vii) All compounds were assayed in comparison with a highly purified preparation of BPC8, that was prepared by Carbogen AMCIS AG, dissolved in sterile water and diluted into TC buffer as required.
The immunoturbidimetric CRP assay on the Roche COBAS MIRA Plus autoanalyser, utilises two different sized microparticles that are covalently coupled with two different monoclonal antibodies, which recognise different CRP epitopes. The assay was developed by Roche for clinical measurement of CRP serum and plasma with high sensitivity and a very wide dynamic range. Serendipitously, one of the two antibodies binds to an epitope present on the ligand binding B-face of CRP. Thus, when the binding pocket is occupied by ligand and, especially, when the B-face is occluded by the B-face to B-face interaction of two native CRP pentamers produced by cross linking via our unique bivalent ligands, the assay fails to detect the CRP. In contrast, the CRP is all detected and assayed normally by other assays that disrupt the crosslinking and/or use antibodies which recognise different, non-occluded, epitopes. Inhibition of CRP recognition in the Roche assay is thus a convenient tool to monitor the efficacy and potency of complex formation between our unique ligands and CRP.

The target in data set [4] is T1, CRP. Nature of the data set: Size exclusion chromatography of CRP/ligand cross linking. Type of data set: binding. More on the design: The final concentrations were 0.73 μM native pentameric CRP; from tissue. As to the method: (i) Ligands were diluted to 0.5 mM in TC buffer from up to 10 mM stocks. Serial dilutions were prepared as required. […]
(iii) The complex was chromatographed on a Superdex200 column (10/300 GL; 24 ml bed volume), connected to the ÅKTA100 Explorer HPLC system, and equilibrated and eluted in TC buffer at 0.5 ml/min. Eluates were monitored at 280 nm and fractions (0.5 ml) collected as required.
Size exclusion chromatography on a Superdex 200 column equilibrated and eluted with TC buffer pH 8.0, and calibrated with standard globular marker proteins and with human CRP, the native CRP pentamer (Mr 115 kDa) eluted at 13.9 ml (range 13.7-14.0 ml, n=10).
On the technique in general: Size exclusion chromatography separates by hydrodynamic size, large species first.

The target of data set [5] is T1, CRP. The data set is described as follows: In vivo clearance of CRP/ligand complexes generated in vivo in mice. More on the design: The final concentrations were 0.73 μM native pentameric CRP; from tissue. As to the method: (i) Two groups of 8 wild-type C57BL/6 mice (male; 23-27 weeks old) were used: group 1 (control) and group 2 (treated).
(ii) Both groups of animals were given 200 μl of human CRP (5 mg/ml in azide-free TC buffer) subcutaneously on day 1.
(iii) On day 2 (+18 h), control animals were given a 200 μl intravenous bolus of TC buffer. Treated animals were given a 200 μl iv bolus of ligand (prepared at 5 mg/ml in TC buffer).
(iv) One timed blood sample and a terminal blood sample were collected from each mouse into heparinised tubes and weighed. This generated data in quadruplicate at 4 time points, normally 30, 60, 120 and 360 minutes.
(v) ^125I radiolabel was measured (Perkin Elmer Wizard; protocol #1) in whole blood to quantify total CRP. In some cases, electroimmunoassay as above was also used to determine total CRP concentration.
(vi) Plasma was prepared and free CRP determined by Roche immunoassay.
Subcutaneous injection of human CRP provided circulating CRP concentrations with which to test for effects of our ligands in vivo. (Table 4).

Data set [6] addresses T1, CRP. Nature of the data set: Rat acute myocardial infarction model (coronary artery ligation) with human CRP. Type of data set: in vivo. Details: The final concentrations were 0.73 μM native pentameric CRP; from tissue. The note with it: rats; ischaemia reperfusion and terminal coronary artery ligation; unpublished observations. From the text: Human CRP and activated rat complement were deposited in and around the infarct and the exacerbation of tissue damage was absolutely complement dependent. Similar observations were made in the middle cerebral artery occlusion model of stroke in rats (3).
The design of the first small molecule inhibitor of CRP binding for use in vivo, bis(phosphocholine)hexane (BPC6), enabled conclusive confirmation of the pathogenic role of human CRP in exacerbating tissue damage after ischaemic infarction (4).

For data set [7], the target named is T1, CRP. More on the design: The final concentrations were 0.73 μM native pentameric CRP; from tissue. The note with it: rats undergoing coronary artery ligation and receiving human CRP; cited from earlier work.

Consider `C[N+](C)(C)CCOP(=O)(O)OCCCCCCCCOP(=O)(O)OCC[N+](C)(C)C` [BPC8, 1,8-bis(phosphocholine)-octane, reference compound], for which the half-life in data set [1] came to 15.4 min. Further, the IC50 at CRP [2] was 2.2 µM. The “excess of ligand over CRP pentamer causing 50% reduction of immunoreactivity” value at CRP [3] was found to be 2.5 fold. Also, on CRP [4] (CRP/ligand complex re-chromatographed in absence of free ligand), the Stable to rechromatography result is “No”. Moreover, the “CRP elution volume from Superdex 200 after pre-incubation with ligand” value at CRP [4] (native CRP pentamer elutes at 13.9 ml) turned out to be 12.6 mL. Moreover, the “Time by which Roche value was the same as in control mice” value on CRP [5] (i.v. bolus 1 mg 18 h after s.c. CRP) was at most 3 h. Further, at CRP [5] (i.v. bolus 18 h after s.c. CRP (1 mg)), the “Effect on detection of circulating CRP in the Roche assay” value is “immediately blocked detection of circulating CRP”. For the same molecule, the “Protective effect against human CRP pathogenicity” value on CRP [6] is recorded as “same protective effect”.
As to `C[N+](C)(C)CCOP(=O)([O-])OCCCCCCOP(=O)([O-])OCC[N+](C)(C)C` [BPC6, bis(phosphocholine)hexane], the half-life in data set [1] came to 16.1 min. The IC50 at CRP [3] (pure CRP in TC buffer, read-out: IC50 (μM), SD, inhibition of Roche CRP immunoreactivity) turned out to be 4.7 µM. For the same molecule, the “Effect on increased tissue damage caused by human CRP” value on CRP [7] is “completely abrogated the increased damage”.
